Experimental data published in US8937086B2, “Compounds for the treatment of pathologies associated with aging and degenerative disorders” (University of Pittsburgh—Of the Commonwealth System of …, priority 2008, dated 2015).
Entries after “also recorded” stand apart in the source; their conditions may differ.

What was measured:
[1] = Body weight / tolerability in treated Ercc1-/Δ mice; assay type: in vivo, mouse; details: FIG. 11A-B; weight versus time
Method: FIG. 11A-B. Weights as a function of age of (A) male and (B) female Ercc1^−/Δ mice either treated with XJB-5-131 or vehicle (sunflower seed oil) according to the protocol shown in FIG. 7.
(§1) To assess the effectiveness of XJB-5-131 in inhibiting degeneration and/or signs of aging and age-related degenerative diseases, the compound was administered, over a 18-21 week period, to progeroid Ercc1^−/Δ mice, at a dose of 2 mg/kg in sunflower seed oil carrier (to promote solubility) administered intraperitoneally three times per week (FIG. 7). Sunflower seed oil was administered to twin Ercc1^−/Δ mice according to the same schedule as a control. The treated and control mice were monitored twice a week for weight and symptom/sign development.
(§2) To assess the impact of XJB-5-131 at a cellular level, a number of experiments were carried out using mouse embryonic fibroblasts (“MEF”) cells harvested from Ercc1^−/− mouse embryos.

[2] = system: primary MEF from Ercc1^−/− mouse embryos; assay: p16 immunofluorescence (irreversible cellular senescence) in MEF; assay type: cell-based; details: 1 μM, 48 hours, 20% oxygen; vs untreated cells
Method: FIG. 17. Levels of p16, a marker of irreversible cellular senescence, in MEF cells prepared from Ercc1^−/− mice, where the MEF cells were either treated with JP4-039 (10 μM dissolved in media) or media alone for 48 hours prior to fixing and immunostaining of cells.
To test the protective activity of JP4-039, cultures of primary MEF were prepared from Ercc1^−/− mouse embryos and grown under 20% oxygen (ambient air), which creates oxidative stress in these cells that are hypersensitive to the reactive oxygen species. The cells were then either treated with a concentration of 1 μM of XJB-5-131, JP4-039, JED-E71-37 or JED-E71-58, or left untreated, and then after 48 hours the level of p16, a marker of irreversible cellular senescence, was measured by immunofluorescence staining. […] Furthermore, in vivo, JP4-039 reversed epidermal atrophy, by increasing proliferation of keratinocytes (FIG. 10D). Thus JP4-039 was efficacious in vitro and in vivo for reducing/reversing age-related degenerative changes.

[3] = Solubility (statement); assay type: physicochemical
Excerpt: Compounds as set forth herein may be administered in a suitable pharmaceutical carrier (e.g. sterile water, normal saline, phosphate buffered saline, etc.). Not by way of limitation, inhibitors may be administered as a solution, as a suspension, in solid form, in a sustained release formulation, in a topical cream formulation, etc. In particular non-limiting examples, an inhibitor may be incorporated into a microcapsule, nanoparticle or liposome.

[4] = system: MEF cells harvested from Ercc1^−/− mouse embryos; assay: SA-β galactosidase staining (cellular senescence) in MEF; assay type: cell-based; details: 500 nM in media, ambient oxygen, 48 hours; vs media only
Method: FIG. 12. SA-β galactosidase (a marker of cellular senescence) staining in mouse embryonic fibroblast (“MEF”) cells prepared from Ercc1^−/− mice, where the MEF cells were either treated with XJB-5-131 ([…]) or media alone continuously for 48 hours prior to fixing and staining the cells.
as §2

[5] = system: Ercc1^−/Δ mice; assay: Healthspan of progeroid Ercc1-/Δ mice treated with compound vs sibling given vehicle; assay type: in vivo, mouse
Excerpt: FIG. 7. Experimental system for determining the impact of a therapeutic compound on the healthspan of Ercc1^−/Δ mice with accelerated aging. Transgenic mice or mutant animals were born from heterozygous crossings. Only litters with two Ercc1^−/Δ mice were enrolled in the study so that siblings could be used to assess the effect of a therapeutic compound, XJB-5-131 vs. vehicle in a pair-wise comparison. Treatments were initiated before the mice became symptomatic. The age at onset of progeroid symptoms were measured biweekly by an investigator blinded to the treatment of the mice.
as §1

[6] = system: Ercc1^−/cond; K14-Cre mice; assay: UV-induced photoaging / sunburn of skin, topical cream; assay type: in vivo, mouse
Method: FIG. 10A-D. (A) Effects of (photo)aging in Ercc1^−/Δ mice either treated with XJB-5-131 (80 μg emulsified in a topical cream) or cream only according to the protocol shown in FIG. 7. The duration of treatment of mice in this figure was daily for five days post-UV irradiation. (B) Compounds as disclosed herein protect skin from photoaging by improving keratin production. Skin of Ercc1^−/cond; K14-Cre mice (missing ERCC1-XPF expression only in the skin) were treated with 20 J/m2 (half of the minimal erythemal dose) five times per week for 10 weeks to induce photoaging of the skin. Immediately after UV exposure, XJB-5-131 was applied (80 μg in 50 μL of cream) using a cotton applicator. Twenty-four hours after the last treatment, mice were euthanized and skin harvested for histopathologic examination. Skin sections were immunostained for keratin (red), DNA to reveal nuclei (blue) and actin (green). (C) Compounds as disclosed herein protect skin from inflammation in response to ultraviolet radiation. Skin of Ercc 1^−/cond; K14-Cre mice (missing ERCC1-XPF expression only in the skin) were treated with 500 J/m2 (12.5× the minimal erythemal dose) to induce erythema. Immediately after UV exposure, XJB-5-131 was applied (80 μg in 50 μL of cream) using a cotton applicator. Twenty-four hours after treatment, mice were euthanized and skin harvested for histopathologic examination. Skin sections were immunostained for keratin (red), DNA to reveal nuclei (blue) and actin (green). The thickness of the epidermal layer (indicated by the white bracket) is less in mice treated with XJB-5-131 than in mice treated with cream alone. (D) Compounds as disclosed herein reduce epidermal atrophy. Old (>24 months) normal mice were shaved and their skin treated with JP4-039 (450 μg in 50 μL of cream) or vehicle (cream) only five times per week for 10 weeks. Twenty-four hours after the last treatment, mice were euthanized and skin harvested for histopathologic examination. Skin sections were stained for DNA to reveal nuclei (blue) and actin (green).
As a measure of the effect of XJB-5-131 on photoaging or sun-induced skin changes, treated and control Ercc1^−/cond. K 14-Cre mice, which are missing ERCC1 only in the skin, were shaved, treated with a depilatory, then irradiated with UV-B light to induce sunburn (500 J/m2, the […] erythemal dose). Subsequently, the mice were treated with XJB-5-131 (80 μg) emulsified in a cream daily for five days.

[7] = system: R6/2 mice; assay: Rotarod motor co-ordination in Huntington's disease model; assay type: in vivo, mouse; details: 2 mg/kg i.p. three times per week from 5 weeks of age; at 6 and 7 weeks of age; vs untreated mutant animals
Method: FIG. 19. XJB-5-131 preserved motor function in a mouse model of Huntington's disease. Five R6/2 mice, which model Huntington's disease, were treated three times per week with 2 mg/kg XJB-5-131 beginning at 5 weeks of life according to the scheme in FIG. 7. Motor function was assessed weekly by measuring the time animals were able to remain balanced on a rotarod, according to standard methods.
Huntington's disease is a fatal autosomal dominant neurodegenerative disease. The prevalence of Huntington's disease is four to seven in 100 000 and it typically develops in mid-life. The symptoms involve psychiatric, motor and cognitive disturbances, and weight loss. […] Mutant huntingtin forms insoluble aggregates that accumulate in the cytoplasm and nucleus of cells, disrupting neuron function. R6/2 mice express exon 1 of the human huntingtin gene, containing 150 CAG repeats. Consequently, the mice develop neurological symptoms that resemble many of those seen in Huntington's disease, including deficits of motor co-ordination, altered locomotor activity, impaired cognitive performance and seizures. Symptoms begin by week 3-4 and are progressive. […] Motor co-ordination was measured using a rotarod, after the mice were conditioned to the apparatus.

[8] = system: MEF cells prepared from Ercc1^−/− mice; assay: Apoptosis in MEF cells; assay type: cell-based, mouse; details: 500 nM in media, 48 hours; vs media alone
Method: FIG. 14. Apoptosis in MEF cells prepared from Ercc1^−/− mice, where the MEF cells were either treated with XJB-5-131 (500 nM dissolved in media) or media alone continuously for 48 hours prior to fixing and staining the cells.
as §2

[9] = system: Ercc1^−/− primary MEF; assay: γH2AX immunostaining of oxidatively stressed primary MEF; assay type: cell-based, mouse; details: 20% oxygen
Method: FIG. 13A-B. γH2AX immunostaining of Ercc1^−/− primary MEF grown at 20% oxygen to induce oxidative stress. Phosphorylated H2AX (γH2AX is a marker of cellular senescence and DNA damage. The MEF cells were either treated with XJB-5-131 (A) or E71-58 (B), fewer cells stained positively for γH2AX.
as §2
Next, the abilities of these two compounds, as well as XJB-5-131 and JP4-039, each at a concentration of 1 μM, were tested for their ability to prevent cellular senescence in cell cultures prepared, and oxidatively stressed, as in the preceding paragraph. Treated as well as untreated cells were, after 48 hours, immunostained for γ-H2AX, a marker of DNA double-strand breaks as well as cellular senescence.

[10] = acute or chronic photoaging, 80 μg in 50 μL of cream

SMILES | weight loss as a result of treatment [1] | level of p16 [2] | solubility [3] | amount of SA-β galactosidase staining [4] | overall aging score (relative age at onset of progeroid symptoms vs sibling on oil) ([5]; 2 mg/kg i.p. in sunflower seed oil, three times per week, 18-21 weeks) | onset of progeroid symptoms and aging pathologies ([5]; 2 mg/kg i.p. three times per week) | symptoms of accelerated aging marked with asterisk (dystonia, ataxia, muscle wasting, decreased spontaneous activity or lethargy), age at onset ([5]; FIG. 8, vs vehicle only) | neurodegeneration and muscle wasting in twin mice ([5]; FIG. 9A, three times per week from 5 weeks of age, vs sibling on vehicle) | general appearance of twin mice ([5]; FIG. 9A, vs sibling on vehicle) | glycosaminoglycan in intervertebral discs, more relative to control mice ([5]; FIG. 9B, vs sunflower seed oil) | neurodegeneration in brain/cerebellum (GFAP immunostaining) ([5]; FIG. 9C, vs siblings on vehicle only) | insulin-producing β-islet cells in pancreas ([5]; FIG. 9D, H&E sections) | thickness of the epidermal layer after UV ([6]; 500 J/m2, 80 μg in 50 μL of cream, 24 h, vs cream alone) | skin appearance after UV-B sunburn ([6]; 500 J/m2 UV-B, 80 μg in cream daily for five days, vs cream only) | inflammation of skin after UV [6, 10] | keratin in skin sections (immunofluorescence) [6, 10] | motor co-ordination (time on rotarod) [7] | amount of apoptosis [8] | γ-H2AX immunostaining (prevention of cellular senescence) ([9]; 1 μM, 48 hours, vs untreated) | γH2AX foci / cells staining positively for γH2AX ([9]; FIG. 13, concentration not stated)
CC1(C)CCCC(C)(C)N1[O] [TEMPO, 2,2,6,6-tetramethylpiperidine-N-oxyl, reference compound] | cause weight loss |  |  |  |  |  |  |  |  |  |  |  |  |  |  |  |  |  |  | 
CC(C)C[C@@H](/C=C/[C@H](Cc1ccccc1)C(=O)N1CCC[C@H]1C(=O)N[C@H](C(=O)N[C@@H](CCCNC(=O)OCc1ccccc1)C(=O)NC1CC(C)(C)N([O])C(C)(C)C1)C(C)C)NC(=O)OC(C)(C)C [XJB-5-131] | did not cause weight loss | less effective | sparingly soluble | notably less | significantly improved | delayed the onset | significantly delayed | reduced and less | improved | approximately 30% | significantly reduced; also recorded: Decreased | preserved; also recorded: Preservation | less | much more smooth and healthy | reduced | improved | significantly better | did not reduce | less effective | reduce; also recorded: fewer
